Laboratory results: patent publication US9420782B2, “Pesticidal composition in the form of aqueous emulsion” (Sumitomo Chemical Company, Limited, priority 2012, dated 2016)

Test: Retention rate of the agriculturally active ingredient after xenon light irradiation (film on glass petri dish)
Format: physicochemical
Details: xenon light (290 nm cutoff), 0.68 W/m^2 at 340 nm, 35° C., neat active ingredient air-dried on petri dish
Procedure: A method for the calculation of a retention rate of the agriculturally active ingredient defined above is more specifically as follows. First, 250 mg of the agriculturally active ingredient is dissolved in 50 mL of a solvent such as acetone, which can sufficiently dissolve the agriculturally active ingredient and also has high volatility, and 1 mL of the solution is added to a glass petri dish having a diameter of 6 cm using a one-mark pipette, spread entirely over the petri dish, and then air-dried at room temperature. The petri dish is covered with a lid made of quartz glass and then set in a weathering tester (manufactured by Q-Lab Corporation under the trade name of Q-SUN Xenon Accelerated Weathering Tester, Model Xe-3) equipped with a borosilicate filter (manufactured by Q-Lab Corporation under the trade name of Daylight-BB Optical Filter) attached thereto. After irradiation with xenon light under the conditions of an intensity at 340 nm of 0.68 W/m^2 and a temperature of 35° C. (35° C. as measured by an insulated black panel thermometer) for a predetermined time, the amount of the agriculturally active ingredient remaining on the petri dish is determined by a known determination method such as high-performance liquid chromatography. […]

CNC(=O)C(OC)c1ccccc1COc1cc(C)ccc1C (stereo not drawn) [compound A, 2-[(2,5-dimethylphenoxy)methyl]-α-methoxy-N-methyl-benzeneacetamide]
retention rate after irradiation with xenon light (8 hours): 93.1%
retention rate after irradiation with xenon light (56 hours): 50.3%
